Consider 22 compounds from patent US20090215783A1, “COMPOSITION FOR INDUCTION OR INHIBITION OF STEM CELL DIFFERENTIATION” (CHOONGWAE PHARMA CORPORATION, priority 2006, published 2009).

Assay [1] concerns Mouse embryonic stem (ES) cells, TC1. The assay can be described thus: Cardiomyogenesis modulating activity assay (alpha-MHC promoter EGFP, embryoid bodies, FACS/fluorescence microscopy). The settings on record: for Cardiomyogenesis: fold change of EGFP expression level compared with DMSO control: embryoid bodies treated for 5 days. The assay is classed as cell-based. A digest of the protocol: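 Mouse TC1 ES cells carrying an alpha-MHC promoter-EGFP reporter were formed into embryoid bodies (~600 cells, 2 days hanging drop, 2 days suspension), plated, then exposed to compounds (final 0.05% DMSO) for 5 days. Cardiomyogenesis assessed by EGFP via FACS after trypsin dissociation, fluorescence microscopy, and daily counts of beating EBs.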

Assay [2] deals with ANP and Nkx2.5 mRNA in the ES cells. The assay can be described thus: Real time RT-PCR of cardiomyogenesis marker genes ANP and Nkx2.5. The settings on record: ES cells treated for 7 and 10 days. The assay is classed as cell-based, mouse. On the procedure: d. Real time RT-PCR: To analyze the mRNA levels of cardiomyogenesis marker genes, Atrial Natriuretic Peptide (ANP) and Nk×2.5, total RNA was isolated using Trizol (Invitrogen-GIBCO-BRL, Baltimore, Md., USA) from stem cells with or without Compound E treatment for 7 days and 10 days. Relative expression level of each mRNA was measured.
For orientation: Quantitative PCR measures a nucleic acid by following its amplification.

Assay [3] has as its system human bone marrow derived-mesenchymal stem cells (hBMMSC). Briefly: Osteogenesis modulating activity assay by test compound alone (ALP activity). The settings on record: for ALP level enhanced: 20 μM, treated alone to hBMMSC; for fold induction at 20 µM: Homo sapiens, 168 h, hBMMSC, 20 μM test compound alone, six to seven days, read-out: Osteogenesis: fold change of ALP activity compared with DMSO control. In kind it is cell-based. The gist of the method: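 hBMMSC from normal subjects were treated with compound at 20 μM final (0.01% DMSO) at 37° C, 5% CO2, with medium and compound renewed every two days. Alkaline phosphatase activity in cell lysates was measured colorimetrically after six to seven days.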

Assay [4] relates to ALP mRNA in hBMMSC. The assay can be described thus: RT-PCR of alkaline phosphatase (ALP) mRNA in hBMMSC. The settings on record: compound treatment for 4 days. In kind it is cell-based, human. On the procedure: RT-PCR. To analyze the mRNA levels for Alkaline phosphatase (ALP), total RNA was isolated using Trizol (Invitrogen-GIBCO-BRL, Baltimore, Md.) from hBMMSC with or without compound treatment for 4 days. 2 μg RNA was reverse transcribed in a total volume of 20 μl with random hexamer (50 ng), and using the Superscript II reverse transcription system (Invitrogen-GIBCO-BRL), according to manufacturer's guidelines. PCR was carried out in a 50 μl volume containing 5 μl cDNA, 100 pmol primers, 100 μM dNTPs, 1×Taq buffer and 1.5 mM MgCl2. Reaction mixtures were heated to 80° C. for 10 min, after which Taq was added. cDNAs were amplified for 25 ([…]) or 15 (GAPDH) cycles. One round of amplification consisted of 1 min at 94° C., 2 min at 60° C., and 2 min at 72° C., with a final extension time of 10 min at 72° C. The PCR products were resolved and visualized by electrophoresis in a 2% gel, stained with ethidium bromide. ALP PCR primers used were, 5′-[…]-3′ and 5′-[…]-3′. Primer pairs for GAPDH were 5′-[…]-3′ and 5′-[…]-3′. A housekeeping gene, GADPH was used as a control.

In assay [5] the test system is hBMMSC. Briefly: Cell proliferation assay (CellTiter 96) in hBMMSC. The assay is classed as cell-based, human. The settings on record: 20 μM, treated alone. On the procedure: Cell proliferation assay: To investigate the cytotoxicity of the test compounds for hBMMSC, hBMMSC were exposed to the test compounds for 6-7 days at the same condition above (method b and c). Cell proliferation was assessed using CellTiter 96 Aqueous One Solution (Promega, #G3581). Absorbance at 490 nm of each well was determined with a microplate reader (Molecular Device) and % growth inhibition was calculated compared with control.

For assay [6], the system named is human bone marrow derived-mesenchymal stem cells (hBMMSC). Briefly: Osteogenesis modulating activity with osteogenic induction cocktails (ALP activity, mineralization). The assay is classed as cell-based. The settings on record: for mineralization of hBMMSC: co-treated with osteogenic induction cocktails (OIC); for stimulation of mineralization at various concentrations: even at the 0.5 μM. The method, then: Cell culture: Human bone marrow derived-mesenchymal stem cells (hBMMSC) were isolated from normal subjects.
Osteogenesis modulating activity of test compounds with induction media: hBMMSC were culture with culture media containing osteogenic induction cocktails (OIC, 0.1 μM dexamethasone, 50 μM ascorbate-2-phosphate, 10 mM b-glycerophosphate). Four to five days after incubation, Alkaline phosphatase (ALP) activity of cell lysates were measured by colorimetry. For the determination of mineralization within the cells, Von Kossa staining or Alizarin Red S assay was performed 10-14 days after incubation.

The structures appear in SMILES notation.

`O=C1[C@H](Cc2ccc(F)c(F)c2)N2C(=O)CN(Cc3ccc(F)cc3)N(C(=O)NCc3ccccc3)[C@H]2CN1Cc1cccc(C(F)(F)F)c1` [#71]: the “expression of fluorescence under the fluorescence microscope compared with DMSO control” value in assay [1] (10 μM, Day 5) was “significantly enhanced”. In addition, the “fold increase of alpha-MHC positive cells compared to DMSO treated EB” value in assay [1] (10 μM, FACS) amounted to 4.6 fold. Moreover, the “cell population expressing fluorescence (alpha-MHC positive)” value in assay [1] (10 μM, FACS analysis of embryoid bodies) was 2.50%. Besides, in assay [1] (FACS), the “Cardiomyogenesis: fold change of EGFP expression level compared with DMSO control” value (“Cardiomyogenesis: fold change” below) came to 4.63 fold. For the same compound, the “cardiomyogenesis differentiation promoting effect at low concentration” value in assay [1] (even at the 0.3 μM) is listed as “distinctive”. Besides, the “cardiomyogenesis differentiation promoting activity (EGFP expression), concentration dependence” value in assay [1] (various concentrations) is listed as “concentration-dependent”. For the same compound, in assay [2], the “expression level of ANP mRNA compared with DMSO control” value is given as “strongly increased” and the “expression level of Nkx2.5 mRNA compared with DMSO control” value is listed as “strongly increased”.
With `O=C1[C@H](Cc2ccc(Cl)cc2)N2C(=O)CN(Cc3ccccc3)N(C(=O)NCc3ccccc3)[C@H]2CN1CCc1ccc(Cl)cc1` [#82], in assay [3], the ALP level enhanced is listed as 200% and the fold induction at 20 µM stood at 2. The “ALP mRNA expression” value in assay [4] was “increased”. This compound came in with a cell proliferation in assay [5] of 127%. The “Cardiomyogenesis: fold change” value in assay [1] (FACS) is on record as 0.97 fold. Also, in assay [6], the “mineralization of hBMMSC” value was “strongly induced mineralization” and the “stimulation of mineralization at various concentrations” value is recorded as “osteogenesis inducing activity”.
Turning to `O=C1C(Cc2ccc(OCc3ccccc3)cc2)N2C(=O)CN(Cc3ccc(F)cc3)N(C(=O)NCc3ccccc3)C2CN1Cc1cccc(C(F)(F)F)c1` (stereo not drawn) [#66], in assay [3], the ALP level enhanced amounted to 202% and the fold induction at 20 µM came to 2.02. Also, the “ALP mRNA expression” value in assay [4] is “increased”. The compound further had a cell proliferation in assay [5] of 83%. Also, in assay [1] (FACS), the “Cardiomyogenesis: fold change” value is on record as 3.13 fold. For the same compound, in assay [6], the “mineralization of hBMMSC” value is “strongly induced mineralization” and the “stimulation of mineralization at various concentrations” value is recorded as “osteogenesis inducing activity”.
On to `COc1ccc(C[C@H]2C(=O)N(CCc3ccccc3)C[C@H]3N2C(=O)CN(C)N3C(=O)NCc2ccccc2)cc1` [#34], for which the fold induction at 20 µM in assay [3] was found to be 1.03. The “Cardiomyogenesis: fold change” value in assay [1] (FACS) was determined as 1.71 fold.
The corresponding values for `CN1CC(=O)N2[C@@H](Cc3ccc(O)cc3)C(=O)N(Cc3cccc4[nH]ncc34)C[C@@H]2N1C(=O)NCc1ccccc1` [#11] are 0.3 and 0.07 fold.
The corresponding values for `CN1CC(=O)N2[C@@H](CN(Cc3cccc(Cl)c3)C(=O)[C@H]2c2ccc(O)cc2)N1C(=O)NCc1ccccc1` [#8] are 0.55 and 0.65 fold.
On to `CC(C)CN1C[C@H]2N(C(=O)CN(C)N2C(=O)NCc2ccccc2)[C@@H](CC(=O)O)C1=O` [#16], for which, in assay [3], the fold induction at 20 µM stood at 0.97. Besides, the “Cardiomyogenesis: fold change” value in assay [1] (FACS) worked out at 1.42 fold.
Regarding `C=CCOC(=O)NCCC[C@@H]1C(=O)N(CCc2ccccc2)C[C@H]2N1C(=O)CN(CC=C)N2C(=O)NCc1ccccc1` [#91], in assay [3], the fold induction at 20 µM worked out at 1.13. Besides, the “Cardiomyogenesis: fold change” value in assay [1] (FACS) amounted to 2.23 fold.
Turning to `CN1CC(=O)N2[C@@H](Cc3ccc(O)c(C(C)(C)C)c3)C(=O)N(Cc3cccc4cccnc34)C[C@@H]2N1C(=O)NCc1ccccc1` [#7], the fold induction at 20 µM in assay [3] worked out at 0.51. The “Cardiomyogenesis: fold change” value in assay [1] (FACS) is recorded as 1.22 fold.
In the same order, the values of `CN1CC(=O)N2[C@@H](CC3CCCCC3)C(=O)N(CCc3ccccc3)C[C@@H]2N1C(=O)NCc1ccccc1` [#37] are 0.95 and 0.98 fold.
In the same order, the values of `O=C1[C@H](Cc2ccc(OCc3ccccc3)cc2)N2C(=O)CN(Cc3ccccc3)N(C(=O)NCc3ccccc3)[C@H]2CN1CCc1ccc(Cl)cc1` [#77] are 0.98 and 1.40 fold.
The corresponding values for `CCCCNC(=O)N1C2CN(CCCCc3ccccc3)C(=O)C(CC(=O)O)N2C(=O)CN1Cc1cccc(F)c1` (stereo not drawn) [#43] are 0.33 and 1.17 fold.
On to `Cc1ccc(C[C@H]2C(=O)N(CCc3ccccc3)C[C@H]3N2C(=O)CN(C)N3C(=O)NCc2ccccc2)cc1` [#36], for which the fold induction at 20 µM in assay [3] was determined as 1.55. Further, the “Cardiomyogenesis: fold change” value in assay [1] (FACS) was 0.54 fold.
The corresponding values for `O=C1[C@H](COCc2ccccc2)N2C(=O)CN(Cc3ccccc3)N(C(=O)NCc3ccccc3)[C@H]2CN1CCc1ccc(Cl)cc1` [#73] are 0.64 and 1.57 fold.
In the same order, the values of `CN1CC(=O)N2[C@@H](CCc3ccccc3)C(=O)N(CCc3ccccc3)C[C@@H]2N1C(=O)NCc1ccccc1` [#33] are 1.85 and 0.28 fold.
In the same order, the values of `C=CCN1CC(=O)N2[C@@H](Cc3ccc(C)cc3)C(=O)N(Cc3ccc(F)cc3)C[C@@H]2N1C(=O)NCc1ccccc1` [#84] are 0.69 and 1.32 fold.
Regarding `CCCCNC(=O)N1C2CN(CCc3ccc(OC)cc3)C(=O)[C@H](CC(=O)O)N2C(=O)CN1Cc1ccc(C)cc1` (stereo partly drawn) [#98], the fold induction at 20 µM in assay [3] worked out at 0.26. For the same compound, the “Cardiomyogenesis: fold change” value in assay [1] (FACS) was found to be 3.34 fold.
In the same order, the values of `CCCCOCCCN1C[C@H]2N(C(=O)N(C)N2C(=O)NCc2ccccc2)[C@@H](CCSC)C1=O` [#107] are 0.66 and 0.59 fold.
In the case of `COc1ccc(CN2C[C@H]3N(C(=O)CN(C)N3C(=O)NCc3ccccc3)[C@@H](c3ccccc3)C2=O)cc1` [#25], in assay [3], the fold induction at 20 µM turned out to be 0.6. Besides, in assay [1] (FACS), the “Cardiomyogenesis: fold change” value amounted to 1.78 fold.
Take `O=C1[C@H](CCc2ccccc2)N2C(=O)CN(Cc3ccccc3)N(C(=O)NCc3ccccc3)[C@H]2CN1CCc1ccc(Cl)cc1` [#75]: the fold induction at 20 µM in assay [3] turned out to be 1.16. In addition, the “Cardiomyogenesis: fold change” value in assay [1] (FACS) worked out at 0.50 fold.
In the same order, the values of `CCCCNC(=O)N1[C@H]2CN(CCCCc3ccccc3)C(=O)[C@H](CCC)N2C(=O)CN1Cc1cccc(F)c1` [#42] are 0.31 and 1.87 fold.
In the same order, the values of `COc1ccc(C[C@H]2C(=O)N(CCc3ccc(Cl)cc3)C[C@H]3N2C(=O)CN(Cc2ccccc2)N3C(=O)NCc2ccccc2)cc1` [#76] are 1.58 and 1.24 fold.
